These results are taken from US20060058320A1, “[1,2,4] Triazolo[1,5-c]pyrimidine derivatives” (KYOWA HAKKO KOGYO CO., LTD., priority 2002, published 2006).

Structures can show the parent of a compound that is named as a salt. Where two headings read alike, the source gives them in different places.

Test [1] concerns CGS 21680-induced catalepsy. Kind of test: Activity on CGS 21680-induced catalepsy. The test is classed as in vivo, mice. The note with it: for inhibition in vivo at 10 mg/kg: Mus musculus, po, read-out: Remission ratio (%); for Total score: total catalepsy score of 10 mice (maximum 50 points; 40 points or less = positive), one hour after administration; for Number of animals showing remission: cases with catalepsy score of 4 points or less in 10 cases. The procedure:
Parkinson's disease is a motor disorder based on degeneration and cell death of the nigrostriatal dopaminergic neurons. When CGS 21680 (adenosine A2A receptor agonist) is administered into the intracerebral ventricle, the inhibitory synaptic transmission of GABA in the medium sized spiny neurons in the corpus striatum is inhibited directly via the adenosine A2A receptor [Journal of Neuroscience, vol. 16, p. 605 (1996)]. Accordingly, it is concidered that the adenosine A2A receptor agonists positively regulate the output of the GABAergic neurons from the corpus striatum to the globus pallidus lateralis, and, as a result, catalepsy is induced by the administration of CGS 21680.
The test was carried out using ten 5-week age male ddY mice (22-25 g in body weight, Japan SLC) per group. CGS 21680 (produced by RBI Co) was dissolved in physiological saline (produced by Otsuka Pharmaceutical Co., Ltd.), and 10 μg/20 μL of the solution was injected into mouse intracerebral ventricle. Each test compound was used by suspending it in distilled water containing 0.3% of polyoxylene (20) sorbitan monooleate (referred to as “Tween 80” hereinafter) (produced by Otsuka Pharmaceutical Co., Ltd.). The suspension containing each test compound or a solution containing no test Compound (distilled water containing 0.3% of Tween 80; used as a control) was orally administered (0.1 mL per 10 g of mouse body weight) 30 minutes before the injection of CGS 21680 into the intracerebral ventricle. One hour after the administration of the each test compound, only forelimbs or only hindlimbs of each mouse were laid on a vertically arranged stand made of acryl and having a size of 4.5 cm in height and 1.0 cm in width to measure catalepsy symptoms. All of the test compounds were administered orally in a dose of 10 mg/kg.
The criteria of the catalepsy score are shown below.
The effect was decided by a total catalepsy score of 10 mice in one group (the maximum score: 50 points). When the total score was 40 points or less, the activity of the compounds was decided positive. The number of the animals showing remission of catalepsy was expressed by the number of cases showing a catalepsy score of 4 points or less in 10 cases. The catalepsy remission ratio was expressed as the percentage of the total score in the test compound-administered group to the total score in the control group.

In test [2] the target is T1, adenosine A2A receptor (Rattus norvegicus, UniProt P30543).
T1 construct: from tissue; host or cells: rat corpus striatum membrane preparation
T1 sequence (P30543 whole entry): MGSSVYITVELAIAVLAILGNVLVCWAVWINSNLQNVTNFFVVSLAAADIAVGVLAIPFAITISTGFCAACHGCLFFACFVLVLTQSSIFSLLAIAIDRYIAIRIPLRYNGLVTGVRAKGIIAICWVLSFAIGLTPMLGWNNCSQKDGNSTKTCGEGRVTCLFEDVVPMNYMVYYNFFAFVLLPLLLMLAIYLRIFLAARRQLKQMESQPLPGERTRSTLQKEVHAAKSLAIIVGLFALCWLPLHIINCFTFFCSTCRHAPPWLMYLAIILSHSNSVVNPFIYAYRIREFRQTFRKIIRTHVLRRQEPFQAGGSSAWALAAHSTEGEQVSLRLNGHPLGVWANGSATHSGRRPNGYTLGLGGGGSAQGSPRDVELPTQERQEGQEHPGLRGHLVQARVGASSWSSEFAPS
The test is described as follows: Adenosine A2A receptor binding test (3H-CGS 21680 binding). Particulars: for inhibition at 0.1 µM: read-out: A2A Receptor inhibition rate (%) at 10^−7 mol/L. The procedure:
The test was carried out according to the method of Bruns et al. [Molecular Pharmacology, vol. 29, p.
Rat corpus striatum was suspended in an ice-cold 50 mmol/L tris(hydroxymethyl)aminomethane hydrochloride (referred to as “Tris HCl” hereinafter) buffer (pH 7.7) using a Polytron homogenizer (produced by Kinematica Co.). The suspension was centrifuged (50,000×g, 10 minutes), and the resulting precipitate was again suspended in the same amount of a 50 mmol/L Tris HCl buffer, followed by centrifugation under the same conditions. The resulting finalprecipitate was again suspended in a 50 mmol/L-Tris HCl buffer [containing 10 mmol/L of magnesium chloride and 0.02 unit/mg tissue of adenosine deaminase (produced by Sigma Co.)] so that the tissue concentration was 5 mg (wet weight)/mL.
The radioactivity on the filter was determined with a liquid scintillation counter (produced by Packard Instrument Co.).
In the equation, X represents Amount of binding in the presence of a medicament, Y represents Amount of nonspecific binding, and Z represents Amount of total binding.

The mark [3] stands for this setting: from total score of test group and control group, 10 mg/kg orally.
Setting [4] is: test compound 10^−7 mol/L, 3H-CGS 21680 binding, rat corpus striatum.

Consider `CN(Cc1ccccc1Cl)C(=O)c1cc2nc(-c3ccco3)nn2c(N)n1` [Compound 122, 5-Amino-2-(2-furyl)[1,2,4]triazolo[1,5-c]pyrimidine-7-carboxylic acid [N-(2-chlorobenzyl)-N-methyl]amide monohydrochloride], for which, in test [1] (setting [3]), the inhibition in vivo at 10 mg/kg was 80%. The Total score in test [1] (10 mg/kg orally) is on record as 10. In test [2] (setting [4]), the inhibition at 0.1 µM was determined as 74%.
For the compound `Nc1nc(-c2cc3nc(-c4ccco4)nn3c(N)n2)cs1` [Compound 58, 5-Amino-7-(2-aminothiazol-4-yl)-2-(2-furyl)-[1,2,4]triazolo-[1,5-c]pyrimidine], the inhibition in vivo at 10 mg/kg in test [1] (setting [3]) stood at 80%. The compound also yielded a Total score in test [1] (10 mg/kg orally) of 10. Further, the inhibition at 0.1 µM in test [2] (setting [4]) is 70%.
With `CN(Cc1ccc2c(c1)OCO2)C(=O)c1cc2nc(-c3ccco3)nn2c(N)n1` [Compound 107, 5-Amino-2-(2-furyl)[1,2,4]triazolo[1,5-c]pyrimidine-7-carboxylic acid [N-(1,3-benzodioxol-5-ylmethyl)-N-methyl]amide monohydrochloride], the inhibition in vivo at 10 mg/kg in test [1] (setting [3]) amounted to 90%. The Total score in test [1] (10 mg/kg orally) stood at 5. Also, in test [2] (setting [4]), the inhibition at 0.1 µM came out at 71%.
As to `COCCN1CC=C(c2cc3nc(-c4ccco4)nn3c(N)n2)CC1` [Compound 73, 5-Amino-2-(2-furyl)-7-[1-(2-methoxyethyl)-1,2,3,6-tetra-hydropyridin-4-yl][1,2,4]triazolo[1,5-c]pyrimidine], the inhibition in vivo at 10 mg/kg in test [1] amounted to 88%. Further, the Total score in test [1] (10 mg/kg orally) is 6. Moreover, the inhibition at 0.1 µM in test [2] worked out at 98%.
Take `Nc1nc(C(=O)N2CCCCCC2)cc2nc(-c3ccco3)nn12` [Compound 154, 5-Amino-2-(2-furyl)[1,2,4]triazolo[1,5-c]pyrimidin-7-yl perhydroazepinyl ketone]: in test [1] (10 mg/kg orally), the “Number of animals showing remission” value is given as 7 and the Total score was determined as 16. Further, the “Remission ratio (%)” value in test [1] (setting [3]) was 66%. Besides, the “A2A Receptor inhibition rate (%) at 10^−7 mol/L” value (“A2A Receptor inhibition rate (%)” for short) in test [2] (setting [4]) is reported as 56%.
Take `CC1CCN(C(=O)c2cc3nc(-c4ccco4)nn3c(N)n2)CC1` [Compound 143, 5-Amino-2-(2-furyl)[1,2,4]triazolo[1,5-c]pyrimidin-7-yl 4-methylpiperidino ketone]: the inhibition in vivo at 10 mg/kg in test [1] (setting [3]) came out at 90%. In addition, the Total score in test [1] (10 mg/kg orally) was 5. In addition, in test [2] (setting [4]), the inhibition at 0.1 µM was 70%.
Take `COCCN1CCN(Cc2cc3nc(-c4ccco4)nn3c(N)n2)CC1` [Compound 49, 5-Amino-2-(2-furyl)-7-[4-(2-methoxyethyl)piperazin-1-yl-methyl][1,2,4]triazolo[1,5-c]pyrimidine dihydrochloride]: the inhibition in vivo at 10 mg/kg in test [1] amounted to 92%. Besides, in test [1] (10 mg/kg orally), the Total score worked out at 4. For the same compound, in test [2] (setting [4]), the inhibition at 0.1 µM turned out to be 89%.
With `COc1ccc(CN(C)C(=O)c2cc3nc(-c4ccco4)nn3c(N)n2)cc1` [Compound 108, 5-Amino-2-(2-furyl)[1,2,4]triazolo[1,5-c]pyrimidine-7-caroboxylic acid [N-(4-methoxybenzyl)-N-methyl]amide monohydrochloride], the inhibition in vivo at 10 mg/kg in test [1] (setting [3]) came out at 96%. Moreover, the Total score in test [1] (10 mg/kg orally) came to 2. The inhibition at 0.1 µM in test [2] (setting [4]) was found to be 65%.
With `Nc1nc(C(=O)N2CCCCC2)cc2nc(-c3ccco3)nn12` [Compound 142, 5-Amino-2-(2-furyl)[1,2,4]triazolo[1,5-c]pyrimidin-7-yl piperidino ketone], the inhibition at 0.1 µM in test [2] (setting [4]) stood at 71%.
As for `CN(Cc1cccc(F)c1)C(=O)c1cc2nc(-c3ccco3)nn2c(N)n1` [Compound 120, 5-Amino-2-(2-furyl)[1,2,4]triazolo[1,5-c]pyrimidine-7-carboxylic acid [N-(3-fluorobenzyl)-N-methyl]amide monohydrochloride], the inhibition at 0.1 µM in test [2] (setting [4]) came out at 61%.
Consider `CC(C)N(Cc1ccn(C)c1)C(=O)c1cc2nc(-c3ccco3)nn2c(N)n1` [Compound 116, 5-Amino-2-(2-furyl)[1,2,4]triazolo[1,5-c]pyrimidine-7-carboxylic acid [N-isopropyl-N-(1-methylpyrrol-3-ylmethyl)]amide], for which, in test [1] (10 mg/kg orally), the “Number of animals showing remission” value was determined as 9 and the Total score turned out to be 9. The “Remission ratio (%)” value in test [1] (setting [3]) is 82%. Moreover, the “A2A Receptor inhibition rate (%)” value in test [2] (setting [4]) is recorded as 62%.
Regarding `CN(Cc1ccco1)C(=O)c1cc2nc(-c3ccco3)nn2c(N)n1` [Compound 101, 5-Amino-2-(2-furyl)[1,2,4]triazolo[1,5-c]pyrimidine-7-carboxylic acid [N-(2-furylmethyl)-N-methyl]amide], the inhibition at 0.1 µM in test [2] (setting [4]) is 83%.
In the case of `Nc1nc(C(=O)N2CCC3CCCCC3C2)cc2nc(-c3ccco3)nn12` (stereo not drawn) [Compound 151, 5-Amino-2-(2-furyl)[1,2,4]triazolo[1,5-c]pyrimidin-7-yl cis-decahydroisoquinolyl ketone], in test [1] (10 mg/kg orally), the “Number of animals showing remission” value was found to be 8 and the Total score was found to be 12. Further, the “Remission ratio (%)” value in test [1] (setting [3]) is on record as 74%. Further, in test [2] (setting [4]), the “A2A Receptor inhibition rate (%)” value was found to be 71%.
On to `CC(=O)NCCNCc1ccccc1-c1cc2nc(-c3ccco3)nn2c(N)n1` [Compound 7, 5-Amino-7-{2-[2-(N-acetylamino)ethylaminomethyl]phenyl}-2-(2-furyl)[1,2,4]triazolo[1,5-c]pyrimidine monohydrochloride], for which the inhibition at 0.1 µM in test [2] (setting [4]) came out at 64%.
Turning to `COc1ccc(CNCc2cc3nc(-c4ccco4)nn3c(N)n2)cc1OC` [Compound 42, 5-Amino-7-(3,4-dimethoxybenzylaminomethyl)-2-(2-furyl)-[1,2,4]triazolo[1,5-c]pyrimidine dihydrochloride], the inhibition at 0.1 µM in test [2] (setting [4]) stood at 62%.
On the same count and under the same terms, next, `CCN(Cc1ccccc1)C(=O)c1cc2nc(-c3ccco3)nn2c(N)n1` [Compound 99, 5-Amino-2-(2-furyl)[1,2,4]triazolo[1,5-c]pyrimidine-7-carboxylic acid (N-benzyl-N-ethyl)amide]: 69%; `N#CCCN(Cc1cccnc1)C(=O)c1cc2nc(-c3ccco3)nn2c(N)n1` [Compound 103, 5-Amino-2-(2-furyl)[1,2,4]triazolo[1,5-c]pyrimidine-7-carboxylic acid [N-(2-cyanoethyl)-N-(3-pyridylmethyl)]amide]: 54%.
Turning to `CC1CCCN(C(=O)c2cc3nc(-c4ccco4)nn3c(N)n2)C1` (centres unmarked) [Compound 145, 5-Amino-2-(2-furyl)[1,2,4]triazolo[1,5-c]pyrimidin-7-yl 3-methylpiperidino ketone], the inhibition at 0.1 µM in test [2] was 60%.
For `Nc1nc(C(=O)N2CCCC2)cc2nc(-c3ccco3)nn12` [Compound 148, 5-Amino-2-(2-furyl)[1,2,4]triazolo[1,5-c]pyrimidin-7-yl pyrrolidinyl ketone], in test [2] (setting [4]), the “A2A Receptor inhibition rate (%)” value is recorded as 75%.
For `Cc1ncccc1CN(C)C(=O)c1cc2nc(-c3ccco3)nn2c(N)n1` [Compound 134, 5-Amino-2-(2-furyl)[1,2,4]triazolo[1,5-c]pyrimidine-7-carboxylic acid [N-methyl-N-(2-methylpyridin-3-ylmethyl)]-amide], the inhibition at 0.1 µM in test [2] (setting [4]) was determined as 60%.
Turning to `COc1cc(CNCc2ccc(-c3cc4nc(-c5ccco5)nn4c(N)n3)cc2)cc(OC)c1` [Compound 17, 5-Amino-7-[4-(3,5-dimethoxybenzylaminomethyl)phenyl]-2-(2-furyl)[1,2,4]triazolo[1,5-c]pyrimidine monohydrochloride], the inhibition at 0.1 µM in test [2] (setting [4]) is 70%.
